Data published in US20260137819A1 (Radionetics Oncology, Inc., priority 2022, published 2026).
Starred links: 1 amine or outer side, 2 acyl side, 3 side chain; linkers in the order of their positions; H or OH if unused. Non-standard residues stand in square brackets, D forms with d. Residues, ends and D or L forms follow the SMILES beside them. Groups on a side chain read outwards from the residue. *: point of attachment. X1 = COc1cc2c(cc1-c1cccc(N*)c1)-c1c(c(C(=O)N3CCOCC3(C)C)nn1-c1cc(Cl)cc(Cl)c1)CO2; DOTA = O=C(O)CN1CCN(CC(=O)O)CCN(CC(=O)*)CCN(CC(=O)O)CC1; Suc = O=C(CCC(=O)[*:2])[*:1]

Each compound was assayed against T1, human follicle-stimulating hormone receptor (FSHR) (Homo sapiens, UniProt P23945) (assay: Measurement of agonist cAMP production by activation of human FSHR). Details: CHO-K1 human FSHR cells, 30 minutes at 37° C., HTRF cAMP kit; read-out: hFSHR Agonist cAMP EC50.
T1 construct: host or cells: CHO-K1
T1 sequence (P23945 18-695): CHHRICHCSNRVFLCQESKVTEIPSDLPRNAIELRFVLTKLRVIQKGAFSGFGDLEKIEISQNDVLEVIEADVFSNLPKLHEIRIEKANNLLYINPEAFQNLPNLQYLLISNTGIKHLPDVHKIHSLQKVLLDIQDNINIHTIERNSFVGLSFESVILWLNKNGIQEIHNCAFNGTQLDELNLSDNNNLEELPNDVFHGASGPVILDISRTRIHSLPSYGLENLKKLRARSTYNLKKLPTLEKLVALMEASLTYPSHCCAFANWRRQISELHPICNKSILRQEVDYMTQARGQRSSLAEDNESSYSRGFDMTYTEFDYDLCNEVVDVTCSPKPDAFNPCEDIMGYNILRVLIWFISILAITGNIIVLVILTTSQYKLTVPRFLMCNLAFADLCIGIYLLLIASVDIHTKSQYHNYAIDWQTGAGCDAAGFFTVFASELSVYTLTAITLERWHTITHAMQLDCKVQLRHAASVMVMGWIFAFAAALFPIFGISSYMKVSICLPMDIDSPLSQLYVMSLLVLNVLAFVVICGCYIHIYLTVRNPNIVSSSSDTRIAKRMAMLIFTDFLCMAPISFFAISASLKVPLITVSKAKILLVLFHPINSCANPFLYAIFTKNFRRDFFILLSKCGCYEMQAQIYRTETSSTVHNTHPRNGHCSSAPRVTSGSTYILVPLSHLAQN
Assay type: cell-based
How it was run: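 cAMP output was measured by HTRF after 30 min at 37 °C agonist exposure (0–10,000 nM final) in stably FSHR-transfected CHO-K1 cells. Lysate cAMP was read off a standard curve and fitted to obtain half-maximal EC50.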

SMILES	EC50
COc1cc2c(cc1-c1ccc(NC(=O)NCCOCCOCCOCCOCCNC(=O)CN3CCN(CC(=O)O)CCN(CC(=O)O)CCN(CC(=O)O)CC3)cc1)-c1c(c(C(=O)N(C)C(C)(C)C)nn1-c1cc(Cl)cc(Cl)c1)CO2 [Compound 6, 2,2′,2″-(10-(1-((4-(3-(tert-butyl(methyl)carbamoyl)-1-(3,5-dichlorophenyl)-7-methoxy-1,4-dihydrochromeno|4,3-clpyrazol-8-yl)phenyl)amino)-1,18-dioxo-5,8,11,14-tetraoxa-2,17-diazanonadecan-19-yl)-1,4,7,10-tetraazacyclododecane-1,4,7-triyl)triacetic acid]	< 10 nM
COc1cc2c(cc1-c1cccc(NC(=O)CCOCCOCCOCCOCCNC(=O)[C@H](CS(=O)(=O)O)NC(=O)CN3CCN(CC(=O)O)CCN(CC(=O)O)CCN(CC(=O)O)CC3)c1)-c1c(c(C(=O)N3CCOCC3(C)C)nn1-c1cc(Cl)cc(Cl)c1)CO2 [Compound 26A, indium (III) (R)-2,2′,2″-(10-(21-((3-(1-(3,5-dichlorophenyl)-3-(3,3-dimethylmorpholine-4-carbonyl)-7-methoxy-1,4-dihydrochromeno[4,3-c]pyrazol-8-yl)phenyl)amino)-2,5,21-trioxo-4-(sulfomethyl)-9,12,15, 18-tetraoxa-3,6-diazahenicosyl)-1,4,7,10-tetraazacyclododecane-1,4,7-triyl)triacetate]	< 10 nM
COc1cc2c(cc1-c1cccc(NC(=O)CC[C@@H](NC(=O)CN3CCN(CC(=O)O)CCN(CC(=O)O)CCN(CC(=O)O)CC3)C(=O)O)c1)-c1c(c(C(=O)N3CCOCC3(C)C)nn1-c1cc(Cl)cc(Cl)c1)CO2 [Compound 31]	10 to 100 nM
COc1cc2c(cc1-c1cccc(NC(=O)CCOCCOCCOCCOCCNC(=O)CN3CCN(CC(=O)O)CCN(CC(=O)O)CCN(CC(=O)O)CC3)c1)-c1c(c(C(=O)N3CCOCC3(C)C)nn1-c1cc(Cl)cc(Cl)c1)CO2 [Compound 17, 2,2′,2″-(10-(18-((3-(1-(3,5-dichlorophenyl)-3-(3,3-dimethylmorpholine-4-carbonyl)-7-methoxy-1,4-dihydrochromeno|4,3-c|pyrazol-8-yl)phenyl)amino)-2,18-dioxo-6,9,12,15-tetraoxa-3-azaoctadecyl)-1,4,7,10-tetraazacyclododecane-1,4,7-triyl)triacetic acid]	< 10 nM

Second part, the compound after the results:

EC50	SMILES
< 10 nM	COc1cc2c(cc1-c1cccc(NC(=O)CCC(=O)N(CCOCCOCCOCCOCCOCCC(=O)O)C3CCN(C(=O)CN4CCN(CC(=O)O)CCN(CC(=O)O)CCN(CC(=O)O)CC4)CC3)c1)-c1c(c(C(=O)N3CCOCC3(C)C)nn1-c1cc(Cl)cc(Cl)c1)CO2 [Compound 45, 2,2′,2″-(10-(2-(4-(N-(17-carboxy-3,6,9,12,15-pentaoxaheptadecyl)-4-((3-(1-(3,5dichlorophenyl)-3-(3,3-dimethylmorpholine-4-carbonyl)-7-methoxy-1,4-dihydrochromeno|4,3-clpyrazol-8-yl)phenyl)amino)-4-oxobutanamido)piperidin-1-yl)-2-oxoethyl)-1,4,7,10-tetraazacyclododecane-1,4,7-triyl)triacetic acid]
< 10 nM	COc1cc2c(cc1-c1cncc(OCCOCCOCCOCCOCCNC(=O)[C@H](CS(=O)(=O)O)NC(=O)CN3CCN(CC(=O)O)CCN(CC(=O)O)CCN(CC(=O)O)CC3)c1)-c1c(c(C(=O)N3CCOCC3(C)C)nn1-c1cc(Cl)cc(Cl)c1)CO2 [Compound 68, (R)-2,2′,2″-(10-(20-((5-(1-(3,5-dichlorophenyl)-3-(3,3-dimethylmorpholine-4carbonyl)-7-methoxy-1,4-dihydrochromeno|4,3-c|pyrazol-8-yl)pyridin-3-yl)oxy)-2,5-dioxo-4-(sulfomethyl)-9,12,15,18-tetraoxa-3,6-diazaicosyl)-1,4,7,10-tetraazacyclododecane-1,4,7-triyl)triacetic acid]
10 to 100 nM	COc1cc2c(cc1-c1cccc(/C(C)=N/OCCNC(=O)CN3CCN(CC(=O)O)CCN(CC(=O)O)CCN(CC(=O)O)CC3)c1)-c1c(c(C(=O)N3CCOCC3(C)C)nn1-c1cc(Cl)cc(Cl)c1)CO2 [Compound 39]
10 to 100 nM	COc1cc2c(cc1-c1cccc(NC(=O)CN3CCC(NC(=O)[C@H](CS(=O)(=O)O)NC(=O)CN4CCN(CC(=O)O)CCN(CC(=O)O)CCN(CC(=O)O)CC4)CC3)c1)-c1c(c(C(=O)N3CCOCC3(C)C)nn1-c1cc(Cl)cc(Cl)c1)CO2 [Compound 66]
10 to 100 nM	COc1cc2c(cc1-c1cccc(NC(=O)CCC(=O)NCCCC[C@@H](NC(=O)[C@@H](C)NC(=O)CN3CCN(CC(=O)O)CCN(CC(=O)O)CCN(CC(=O)O)CC3)C(=O)N[C@H](CCC(=O)O)C(=O)N[C@H](CCC(=O)O)C(=O)N[C@H](CCC(=O)O)C(=O)N[C@H](CCC(=O)O)C(=O)N[C@H](C)C(N)=O)c1)-c1c(c(C(=O)N3CCOCC3(C)C)nn1-c1cc(Cl)cc(Cl)c1)CO2 [Compound 87, 2,2′,2″-(10-((4R,7R,10R,13R,16R,19R,22R)-23-amino-10,13,16,19-tetrakis(2carboxyethyl)-7-(4-(4-((3-(1-(3,5-dichlorophenyl)-3-(3,3-dimethylmorpholine-4-carbonyl)-7-methoxy-1,4-dihydrochromeno|4,3-c|pyrazol-8-yl)phenyl)amino)-4-oxobutanamido)butyl)-4,22-dimethyl-2,5,8,11,14,17,20,23-octaoxo-3,6,9,12,15,18,21-heptaazatricosyl)-1,4,7,10-tetraazacyclododecane-1,4,7-triyl)triacetic acid] ({DOTA}-[dA][dK]([Suc-X1])[dE][dE][dE][dE][dA]-NH2)
